ChEMBL document CHEMBL2331514, “Structure-based design and synthesis of novel pseudosaccharine derivatives as antiproliferative agents and kinase inhibitors” (Eur J Med Chem, 2013)

What was measured:
[1] = Partition coefficient, log P of the compound; type: physicochemical; conditions: octanol/water
TK-10 = test: Cytotoxicity against human TK10 cells assessed as growth inhibition at 10 uM after 48 hrs by SRB assay; type: functional; conditions: TK-10, 48 h, read-out: GI
RXF 393 = test: Cytotoxicity against human RXF393 cells assessed as growth inhibition at 10 uM after 48 hrs by SRB assay; type: functional; conditions: RXF 393, 48 h, read-out: GI
CAKI-1 = test: Cytotoxicity against human Caki1 cells assessed as growth inhibition at 10 uM after 48 hrs by SRB assay; type: functional; conditions: CAKI-1, 48 h, read-out: GI
A498 = test: Cytotoxicity against human A498 cells assessed as growth inhibition at 10 uM after 48 hrs by SRB assay; type: functional; conditions: A498, 48 h, read-out: GI
IGROV-1 = test: Cytotoxicity against human IGROV1 cells assessed as growth inhibition at 10 uM after 48 hrs by SRB assay; type: functional; conditions: IGROV-1, 48 h, read-out: GI
SK-MEL-5 = test: Cytotoxicity against human SK-MEL-5 cells assessed as growth inhibition at 10 uM after 48 hrs by SRB assay; type: functional; conditions: SK-MEL-5, 48 h, read-out: GI
SK-MEL-28 = test: Cytotoxicity against human SK-MEL-28 cells assessed as growth inhibition at 10 uM after 48 hrs by SRB assay; type: functional; conditions: SK-MEL-28, 48 h, read-out: GI
Malme-3M = test: Cytotoxicity against human MALME-3M cells assessed as growth inhibition at 10 uM after 48 hrs by SRB assay; type: functional; conditions: read-out: GI
LOX IMVI = test: Cytotoxicity against human LOXIMVI cells assessed as growth inhibition at 10 uM after 48 hrs by SRB assay; type: functional; conditions: read-out: GI
U-251 = test: Cytotoxicity against human U251 cells assessed as growth inhibition at 10 uM after 48 hrs by SRB assay; type: functional; conditions: U-251, 48 h, read-out: GI
SNB-75 = test: Cytotoxicity against human SNB75 cells assessed as growth inhibition at 10 uM after 48 hrs by SRB assay; type: functional; conditions: SNB-75, 48 h, read-out: GI
SNB-19 = test: Cytotoxicity against human SNB19 cells assessed as growth inhibition at 10 uM after 48 hrs by SRB assay; type: functional; conditions: SNB-19, 48 h, read-out: GI
SF-268 = test: Cytotoxicity against human SF268 cells assessed as growth inhibition at 10 uM after 48 hrs by SRB assay; type: functional; conditions: SF-268, 48 h, read-out: GI
NCI-H522 = test: Cytotoxicity against human NCI-H522 cells assessed as growth inhibition at 10 uM after 48 hrs by SRB assay; type: functional; conditions: NCI-H522, 48 h, read-out: GI
NCI-H322M = test: Cytotoxicity against human NCI-H322M cells assessed as growth inhibition at 10 uM after 48 hrs by SRB assay; type: functional; conditions: read-out: GI
HOP-92 = test: Cytotoxicity against human HOP92 cells assessed as growth inhibition at 10 uM after 48 hrs by SRB assay; type: functional; conditions: HOP-92, 48 h, read-out: GI
HOP-62 = test: Cytotoxicity against human HOP62 cells assessed as growth inhibition at 10 uM after 48 hrs by SRB assay; type: functional; conditions: HOP-62, 48 h, read-out: GI
A549 = test: Cytotoxicity against human A549/ATCC cells assessed as growth inhibition at 10 uM after 48 hrs by SRB assay; type: functional; conditions: A549, 48 h, read-out: GI
RPMI-8226 = test: Cytotoxicity against human RPMI8226 cells assessed as growth inhibition at 10 uM after 48 hrs by SRB assay; type: functional; conditions: RPMI-8226, 48 h, read-out: GI
HL-60(TB) = test: Cytotoxicity against human HL-60(TB) cells assessed as growth inhibition at 10 uM after 48 hrs by SRB assay; type: functional; conditions: HL-60, 48 h, read-out: GI

Cc1ccc(NC2=NS(=O)(=O)c3ccc(NC(=O)CCC(=O)O)cc32)cc1
logP [1]: 1
inhibition of growth at 10 µM (TK-10): -16%
inhibition of growth at 10 µM (RXF 393): -4%
inhibition of growth at 10 µM (CAKI-1): 1%
inhibition of growth at 10 µM (A498): -14%
inhibition of growth at 10 µM (IGROV-1): -12%
inhibition of growth at 10 µM (SK-MEL-5): 5%
inhibition of growth at 10 µM (SK-MEL-28): -2%
inhibition of growth at 10 µM (Malme-3M): -1%
inhibition of growth at 10 µM (LOX IMVI): 1%
inhibition of growth at 10 µM (U-251): 0%
inhibition of growth at 10 µM (SNB-75): 21%
inhibition of growth at 10 µM (SNB-19): 1%
inhibition of growth at 10 µM (SF-268): -10%
inhibition of growth at 10 µM (NCI-H522): -8%
inhibition of growth at 10 µM (NCI-H322M): 2%
inhibition of growth at 10 µM (HOP-92): 9%
inhibition of growth at 10 µM (HOP-62): -5%
inhibition of growth at 10 µM (A549): -7%
inhibition of growth at 10 µM (RPMI-8226): 7%
inhibition of growth at 10 µM (HL-60(TB)): 9%

O=C(Nc1ccc(NC2=NS(=O)(=O)c3ccccc32)cc1)Nc1cccc(Br)c1
logP [1]: 2.24
inhibition of growth at 10 µM (TK-10): -2%
inhibition of growth at 10 µM (RXF 393): 35%
inhibition of growth at 10 µM (CAKI-1): 5%
inhibition of growth at 10 µM (A498): 21%
inhibition of growth at 10 µM (IGROV-1): -10%
inhibition of growth at 10 µM (SK-MEL-5): 45%
inhibition of growth at 10 µM (SK-MEL-28): 5%
inhibition of growth at 10 µM (Malme-3M): 17%
inhibition of growth at 10 µM (LOX IMVI): 23%
inhibition of growth at 10 µM (U-251): 39%
inhibition of growth at 10 µM (SNB-75): 15%
inhibition of growth at 10 µM (SNB-19): 19%
inhibition of growth at 10 µM (SF-268): 23%
inhibition of growth at 10 µM (NCI-H522): 14%
inhibition of growth at 10 µM (NCI-H322M): 29%
inhibition of growth at 10 µM (HOP-92): 36%
inhibition of growth at 10 µM (HOP-62): 24%
inhibition of growth at 10 µM (A549): 4%
inhibition of growth at 10 µM (RPMI-8226): 8%
inhibition of growth at 10 µM (HL-60(TB)): 1%

O=C(Nc1ccccc1)Nc1ccc(NC2=NS(=O)(=O)c3ccccc32)cc1
logP [1]: 2.23
inhibition of growth at 10 µM (TK-10): -12%
inhibition of growth at 10 µM (RXF 393): -6%
inhibition of growth at 10 µM (CAKI-1): 2%
inhibition of growth at 10 µM (A498): 16%
inhibition of growth at 10 µM (IGROV-1): -14%
inhibition of growth at 10 µM (SK-MEL-5): 6%
inhibition of growth at 10 µM (SK-MEL-28): -10%
inhibition of growth at 10 µM (Malme-3M): -1%
inhibition of growth at 10 µM (LOX IMVI): 2%
inhibition of growth at 10 µM (U-251): 1%
inhibition of growth at 10 µM (SNB-75): 19%
inhibition of growth at 10 µM (SNB-19): -5%
inhibition of growth at 10 µM (SF-268): -1%
inhibition of growth at 10 µM (NCI-H522): -6%
inhibition of growth at 10 µM (NCI-H322M): -8%
inhibition of growth at 10 µM (HOP-92): 1%
inhibition of growth at 10 µM (HOP-62): -11%
inhibition of growth at 10 µM (A549): 3%
inhibition of growth at 10 µM (RPMI-8226): -2%
inhibition of growth at 10 µM (HL-60(TB)): 5%

COc1ccc(NC(=O)Nc2ccc(NC3=NS(=O)(=O)c4ccccc43)cc2)cc1
logP [1]: 2.99
inhibition of growth at 10 µM (TK-10): -4%
inhibition of growth at 10 µM (RXF 393): -2%
inhibition of growth at 10 µM (CAKI-1): -1%
inhibition of growth at 10 µM (A498): 17%
inhibition of growth at 10 µM (IGROV-1): -6%
inhibition of growth at 10 µM (SK-MEL-5): 14%
inhibition of growth at 10 µM (SK-MEL-28): -4%
inhibition of growth at 10 µM (Malme-3M): 6%
inhibition of growth at 10 µM (LOX IMVI): 1%
inhibition of growth at 10 µM (U-251): 14%
inhibition of growth at 10 µM (SNB-75): 1%
inhibition of growth at 10 µM (SNB-19): -6%
inhibition of growth at 10 µM (SF-268): -1%
inhibition of growth at 10 µM (NCI-H522): 0%
inhibition of growth at 10 µM (NCI-H322M): 0%
inhibition of growth at 10 µM (HOP-92): -13%
inhibition of growth at 10 µM (HOP-62): -12%
inhibition of growth at 10 µM (A549): -10%
inhibition of growth at 10 µM (RPMI-8226): 4%
inhibition of growth at 10 µM (HL-60(TB)): 10%
